20 compounds from patent US10874743B2, “IRAK degraders and uses thereof” (Kymera Therapeutics, Inc., priority 2017, dated 2020) can be followed below.

Structures are written as SMILES.

This assay concerns the target T1, IRAK4 (Homo sapiens, UniProt Q9NWZ3).
T1 sequence (Q9NWZ3 1-460): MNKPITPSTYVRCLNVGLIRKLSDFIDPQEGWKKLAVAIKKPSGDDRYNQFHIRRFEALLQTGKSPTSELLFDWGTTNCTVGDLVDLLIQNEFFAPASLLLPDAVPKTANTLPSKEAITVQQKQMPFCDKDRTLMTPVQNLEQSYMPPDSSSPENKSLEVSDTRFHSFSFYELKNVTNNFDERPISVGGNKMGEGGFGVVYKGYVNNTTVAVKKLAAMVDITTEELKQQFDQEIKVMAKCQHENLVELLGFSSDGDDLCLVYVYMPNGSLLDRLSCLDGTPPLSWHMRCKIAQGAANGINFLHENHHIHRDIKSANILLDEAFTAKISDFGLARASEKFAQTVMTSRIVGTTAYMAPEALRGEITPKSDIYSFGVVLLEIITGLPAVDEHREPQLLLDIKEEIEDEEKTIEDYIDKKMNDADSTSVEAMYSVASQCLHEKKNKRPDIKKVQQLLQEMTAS
In words: THP-1 degradation assay (western blot, % IRAK4 degraded after 24 hours). Type of assay: cell-based. Further details: endogenous in cells. Conditions: THP-1 cells. The protocol:
Compounds were reconstituted in DMSO to make stock solutions at concentration of 60 mM. THP-1 and OCI-LY10 cells were maintained in RPMI-1640 medium containing 10% FBS, 0.5 μM 2-ME or 20% FBS, 55 μM 2-ME, and 1% L-Glutamine respectively.
Cells were seeded into 6-well plates with 5e6 cells per well. 200 μL of diluted compounds were added to cells to the final concentration of 0.003-10 μM. After 4 or 24 hour-incubation at 37° C., cells were collected into 2 mL Eppendorf tubes and centrifuged at 1,000 rpm for 5 min. The cell pellets were washed with 1×DPBS once and resuspended in 60 μL lysis buffer. The cells were lysed on ice for 10 min, then centrifuged at 14,000 rpm for 10 min at 4° C. and the supernatants were collected for western blots. For THP-1 cells, the lysis buffer contained 40 mM pH 7.4 HEPES, 140 mM NaCl, 2.5 mM EDTA, 1% NP-40, 0.1% SDS, and protease inhibitor cocktail (Roche, Cat. No. 05892791001). For OCI-LY10 cells, RIPAbuffer (Thermo Fisher, 89900) with Halt Protease and Phosphatase Inhibitor Cocktail (Thermo Fisher, 78446) was applied.
The protein concentration of cell lysates was quantified with Pierce™ BCA Protein Assay Kit (Pierce, 23227). Albumin standards at different concentrations were prepared, involving 2,000 ug/mL, 1,500 ug/mL, 1,000 ug/mL, 750 ug/mL, 500 ug/mL, 250 ug/mL, 125 ug/mL, and 25 ug/mL. BCA working reagents were prepared by mixing BCA reagent A with reagent B in 50:1 ratio. 200 μL of the BCA working reagents were added to 25 μL of BCA standard or cell lysates in microplate, and mixed thoroughly on a plate shaker for 30 seconds. After incubation at 37° C. for 30 min, the absorbance of samples at 562 nm were measured with EnVision Plate Reader.
Protein lysates were prepared in NuPAGE™ LDS sample buffer and NuPAGE™ sample reducing agent, and incubated at 95° C. for 5 min. For western blots, 20-25 μg of total proteins were resolved in 4-12% Bis-Tris gels (Introgen, WG1403A) or 10% Bis-Tris Midi gels (Invitrogen, WG1202BOX) running with 1×MOPS SDS running buffer (Invitrogen, NP0001) or 1×MES SDS running buffer (Invitrogen, NP0002). The proteins were transferred to low fluorescence PVDF membranes using the Trans-Blot Turbo Transfer System. Membranes were then blocked in Odyssey blocking buffer at RT for 1 h followed by primary incubation at 4° C. overnight. The primary antibodies were IRAK1 rabbit monoclonal antibody (CST, #4504S, 1:500), IRAK3 rabbit polyclonal antibody (CST, #4369, 1:500), IRAK4 rabbit polyclonal antibody (CST, #4363S, 1:1,000), MyD88 rabbit monoclonal antibody (Abcam, Ab133739, 1:2,000), j3-actin mouse monoclonal antibody (Sigma, A5441, 10,000), and Gapdh mouse monoclonal antibody (Millipore, MAB374, 1:5,000). Membranes were washed three times with 1×TBST, and then incubated with IR Dye 800 CW Goat anti-rabbit (Licor, #926-32211) and IR Dye 700 CW Goat anti-mouse (Licor, #926-68070) secondary antibodies in 1:10,000 dilution at RT for 1 h. The western blot images were obtained using Odyssey Imaging System.
THP-1 results at 24 hours. The letter codes indicate the percentage of IRAK4 degraded after 24 hours: A (>50% degradation), B (>20-50% degradation) and C (<20% degradation)
(In general: A western blot detects proteins with antibodies after separation by electrophoresis.)
As to `Cc1ncsc1-c1ccc(CNC(=O)[C@@H]2C[C@@H](O)CN2C(=O)C(NC(=O)COCCOCCOCCOCCNC(=O)[C@H]2CC[C@H](NC(=O)c3cnc(Nc4ccc5cnccc5n4)cc3NC3CC3)CC2)C(C)(C)C)cc1` (some centres unmarked) [I-13], the “THP-1 24 h % IRAK4 Degradation” value is “C (<20% degradation)”. For `O=C(COc1cccc2c1C(=O)N(C1CCC(=O)NC1=O)C2=O)NCCOCCOCCOCC(F)CNC(=O)c1cnc(Nc2ccc3cnccc3n2)cc1NC1CC1` (centres unmarked) [I-96], the “THP-1 24 h % IRAK4 Degradation” value is given as “C (<20% degradation)”. For `NC(=O)c1nnc(N[C@@H]2CCCC[C@@H]2N)nc1Nc1cccc2c1ccn2CCOCCOCCOCCOCCNc1cccc2c1C(=O)N(C1CCC(=O)NC1=O)C2=O` (stereo partly drawn) [I-194, 3-[[(1R,2S)-2-aminocyclohexyl]amino]-5-[[1-[2-[2-[2-[2-[2-[[2-(2,6-dioxo-3-piperidyl)-1,3-dioxo-isoindolin-4-yl]amino]ethoxy]ethoxy]ethoxy]ethoxy]ethyl]indol-4-yl]amino]-1,2,4-triazine-6-carboxamide], the “THP-1 24 h % IRAK4 Degradation” value is “C (<20% degradation)”. As to `O=C(CN1CCC(NC(=O)c2cnc(Nc3ccc4cnccc4n3)cc2NC2CC2)CC1)NCCOCCOCCNc1cccc2c1C(=O)N(C1CCC(=O)NC1=O)C2=O` (centres unmarked) [I-19, 6-((1,6-naphthyridin-2-yl)amino)-4-(cyclopropylamino)-N-(1-(2-((2-(2-(2-((2-(2,6-dioxopiperidin-3-yl)-1,3-dioxoisoindolin-4-yl)amino)ethoxy)ethoxy)ethyl)amino)-2-oxoethyl)piperidin-4-yl)nicotinamide], the “THP-1 24 h % IRAK4 Degradation” value is listed as “C (<20% degradation)”. `COc1cc(Nc2nc(N[C@H]3CCCC[C@H]3N)n3ccnc3c2C(N)=O)cc(OC)c1OCCOCCOCCOCCNc1cccc2c1C(=O)N(C1CCC(=O)NC1=O)C2=O` (stereo partly drawn) [I-200, 5-(((1S,2R)-2-aminocyclohexyl)amino)-7-((4-(2-(2-(2-(2-((2-(2,6-dioxopiperidin-3-yl)-1,3-dioxoisoindolin-4-yl)amino)ethoxy)ethoxy)ethoxy)ethoxy)-3,5-dimethoxyphenyl)amino)imidazo[1,2-c]pyrimidine-8-carboxamide]: the “THP-1 24 h % IRAK4 Degradation” value is reported as “C (<20% degradation)”.

With `Cc1ncsc1-c1ccc(CNC(=O)[C@@H]2C[C@@H](O)CN2C(=O)[C@H](NC(=O)CCCCCOCCCCCCCNC(=O)[C@H]2CC[C@H](NC(=O)c3cnc(Nc4ccc5cnccc5n4)cc3NC3CC3)CC2)C(C)(C)C)cc1` [I-14], the “THP-1 24 h % IRAK4 Degradation” value is listed as “C (<20% degradation)”.

Consider `Cc1ncsc1-c1ccc(CNC(=O)[C@@H]2C[C@@H](O)CN2C(=O)[C@@H](NC(=O)COCCOCCn2ccc3c(Nc4nc(N[C@@H]5CCCC[C@@H]5N)cc5[nH]cnc(=O)c45)cccc32)C(C)(C)C)cc1` [I-189, (2S,4R)-1-[(2S)-2-[[2-[2-[2-[4-[[7-[[(1R,2S)-2-aminocyclohexyl]amino]-4-oxo-3H-pyrido[4,3-d]pyrimidin-5-yl]amino]indol-1-yl]ethoxy]ethoxy]acetyl]amino]-3,3-dimethyl-butanoyl]-4-hydroxy-N-[[4-(4-methylthiazol-5-yl)phenyl]methyl]pyrrolidine-2-carboxamide], for which the “THP-1 24 h % IRAK4 Degradation” value is reported as “C (<20% degradation)”. The value for `O=C(COc1cccc2c1C(=O)N(C1CCC(=O)NC1=O)C2=O)NCCCCCOCCOCCOCCCCCNC(=O)[C@H]1CC[C@H](NC(=O)c2cnc(Nc3ccc4cnccc4n3)cc2NC2CC2)CC1` (stereo partly drawn) [I-1, 6-((1,6-naphthyridin-2-yl)amino)-4-(cyclopropylamino)-N-((1R,4R)-4-((1-((2-(2,6-dioxopiperidin-3-yl)-1,3-dioxoisoindolin-4-yl)oxy)-2-oxo-9,12,15-trioxa-3-azaicosan-20-yl)carbamoyl)cyclohexyl)nicotinamide] was “B (>20-50% degradation)”. Under `COc1cc(Nc2nc(N[C@H]3CCCC[C@H]3N)n3ccnc3c2C(N)=O)cc(OCCOCCOCCOCCOCCOCC(=O)N[C@H](C(=O)N2C[C@H](O)C[C@H]2C(=O)NCc2ccc(-c3scnc3C)cc2)C(C)(C)C)c1` [I-163] stands “C (<20% degradation)”; under `Cc1ncsc1-c1ccc(CNC(=O)[C@@H]2C[C@@H](O)CN2C(=O)[C@@H](NC(=O)COCCOCCOCCOCCOCCOCC(F)CNC(=O)c2cnc(Nc3ccc4cnccc4n3)cc2NC2CC2)C(C)(C)C)cc1` (some centres unmarked) [I-119], “B (>20-50% degradation)”; under `O=C1CCC(N2C(=O)c3cccc(NCCOCCOCCOCC(=O)N4CCC(NC(=O)c5cnc(Nc6ccc7cnccc7n6)cc5NC5CC5)CC4)c3C2=O)C(=O)N1` (centres unmarked) [I-43, 6-((1,6-naphthyridin-2-yl)amino)-4-(cyclopropylamino)-N-(1-(2-(2-(2-(2-((2-(2,6-dioxopiperidin-3-yl)-1,3-dioxoisoindolin-4-yl)amino)ethoxy)ethoxy)ethoxy)acetyl)piperidin-4-yl)nicotinamide], “C (<20% degradation)”. Regarding `CC(C)(OCC(=O)NCCOCCOCCNc1cccc2c1C(=O)N(C1CCC(=O)NC1=O)C2=O)C(F)CNC(=O)c1cnc(Nc2ccc3cnccc3n2)cc1NC1CC1` (centres unmarked) [I-55], the “THP-1 24 h % IRAK4 Degradation” value was “C (<20% degradation)”.

With `O=C(COc1cccc2c1C(=O)N(C1CCC(=O)NC1=O)C2=O)NCCCCCNC(=O)[C@H]1CC[C@H](NC(=O)c2cnc(Nc3ccc4cnccc4n3)cc2NC2CC2)CC1` (some centres unmarked) [I-4], the “THP-1 24 h % IRAK4 Degradation” value is listed as “A (>50% degradation)”. For the compound `O=C(COc1cccc2c1C(=O)N(C1CCC(=O)NC1=O)C2=O)NCCCOCCCOCC(F)CNC(=O)c1cnc(Nc2ccc3cnccc3n2)cc1NC1CC1` (centres unmarked) [I-100], the “THP-1 24 h % IRAK4 Degradation” value was “B (>20-50% degradation)”. The value for `O=C1CCC(N2C(=O)c3cccc(NCCOCCOCCOCCOCCOCC(F)CNC(=O)c4cnc(Nc5ccc6cnccc6n5)cc4NC4CC4)c3C2=O)C(=O)N1` (centres unmarked) [I-48] was “B (>20-50% degradation)”.

For the compound `Cc1ncsc1-c1ccc(CNC(=O)[C@@H]2C[C@@H](O)CN2C(=O)[C@H](NC(=O)CCCCNC(=O)[C@H]2CC[C@H](NC(=O)c3cnc(Nc4ccc5cnccc5n4)cc3NC3CC3)CC2)C(C)(C)C)cc1` [I-15], the “THP-1 24 h % IRAK4 Degradation” value was “A (>50% degradation)”. The value for `O=C(COc1cccc2c1C(=O)N(C1CCC(=O)NC1=O)C2=O)NCCCCCOCCCCCNC(=O)[C@H]1CC[C@H](NC(=O)c2cnc(Nc3ccc4cnccc4n3)cc2NC2CC2)CC1` (some centres unmarked) [I-3] was “C (<20% degradation)”; that for `COc1cc(Nc2nc(N[C@H]3CCCC[C@H]3N)n3ccnc3c2C(N)=O)cc(OCCOCCOCCOCCOCCNc2cccc3c2C(=O)N(C2CCC(=O)NC2=O)C3=O)c1` (some centres unmarked) [I-199] was “C (<20% degradation)”. On to `COc1cc(Nc2nc(N[C@H]3CCCC[C@H]3N)n3ccnc3c2C(N)=O)cc(OC)c1OCCOCCOCCOCCOCC(=O)N[C@H](C(=O)N1C[C@H](O)C[C@H]1C(=O)NCc1ccc(-c2scnc2C)cc1)C(C)(C)C` [I-164], for which the “THP-1 24 h % IRAK4 Degradation” value was “C (<20% degradation)”. Turning to `O=C(COc1cccc2c1C(=O)N(C1CCC(=O)NC1=O)C2=O)NCCOCCOCCOCCOCC(F)CNC(=O)c1cnc(Nc2ccc3cnccc3n2)cc1NC1CC1` (centres unmarked) [I-98], the “THP-1 24 h % IRAK4 Degradation” value is “B (>20-50% degradation)”.
